In the supplement of paper PMC4862054:

What was measured:
CAL-148 [1] = test: drug sensitivity score (DSS), CellTox Green (DSS (AUC-based score)); higher = stronger drug effect (viability inhibition or cytotoxicity); extreme values may be limits of the assay; details: incubation time: 72 h
Method in brief: (§1)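 In 384-well plates, compound was laid out at 5 concentrations in 10-fold steps over a 10,000-fold range specific to each compound, and breast cancer cell lines were seeded on top in 20 µl suspension for a 72 h incubation. CellTox Green fluorescence and then CellTiter-Glo luminescence were read, and each plate was normalised to 0.1 % DMSO and a positive kill control. The drug sensitivity score was calculated from the area under the fitted dose-response curve.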

MDA-MB-436 [2] = test: as above; details: incubation time: 72 h
Method in brief: as §1

BT-549 [3] = test: as above; details: incubation time: 72 h
Method in brief: as §1

CAL-85-1 [4] = test: as above; details: incubation time: 72 h
Method in brief: as §1

MDA-MB-468 [5] = test: as above; details: incubation time: 72 h
Method in brief: as §1

CAL-120 [6] = details: 72 h
Method in brief: (§2)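 Two sequential readouts followed a 72 h incubation of breast cancer cell lines with compound at 5 concentrations in 10-fold steps over a compound-specific 10,000-fold range: CellTox Green fluorescence (485/520 nm) for cell death, then CellTiter-Glo luminescence, after 10 min at room temperature, for viability. Each plate was normalised to 0.1 % DMSO and a positive kill control. Dose-response curves were fitted for EC50, censored at the top concentration.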

MDA-MB-468 [7] = details: 72 h
Method in brief: as §2

MDA-MB-231 = test: drug sensitivity score (DSS), CellTiter-Glo (DSS (AUC-based score)); higher = stronger drug effect (viability inhibition or cytotoxicity); extreme values may be limits of the assay; details: incubation time: 72 h
Method in brief: as §1

CAL-148 [8] = test: as above; details: incubation time: 72 h
Method in brief: as §1

CAL-51 = test: as above; details: incubation time: 72 h
Method in brief: as §1

CAL-120 [9] = test: as above; details: incubation time: 72 h
Method in brief: as §1

Hs578T = test: as above; details: incubation time: 72 h
Method in brief: as §1

HCC1599 = test: as above; details: incubation time: 72 h
Method in brief: as §1

HCC1937 = test: as above; details: incubation time: 72 h
Method in brief: as §1

HDQ-P1 = test: as above; details: incubation time: 72 h
Method in brief: as §1

HCC1143 = test: as above; details: incubation time: 72 h
Method in brief: as §1

MCF-10A = test: as above; details: incubation time: 72 h
Method in brief: as §1

MDA-MB-453 = test: as above; details: incubation time: 72 h
Method in brief: as §1

BT-474 = test: as above; details: incubation time: 72 h
Method in brief: as §1

MDA-MB-436 [10] = test: as above; details: incubation time: 72 h
Method in brief: as §1

MFM-223 = test: as above; details: incubation time: 72 h
Method in brief: as §1

BT-549 [11] = test: as above; details: incubation time: 72 h
Method in brief: as §1

CAL-85-1 [12] = test: as above; details: incubation time: 72 h
Method in brief: as §1

DU-4475 = test: as above; details: incubation time: 72 h
Method in brief: as §1

MDA-MB-468 [13] = test: as above; details: incubation time: 72 h
Method in brief: as §1

SK-BR-3 = test: as above; details: incubation time: 72 h
Method in brief: as §1

Row | Structure (SMILES) | EC50, CellTiter-Glo (MDA-MB-468 [7]) | drug sensitivity score (CAL-148 [1]) | drug sensitivity score (MDA-MB-436 [2]) | drug sensitivity score (BT-549 [3]) | drug sensitivity score (CAL-85-1 [4]) | drug sensitivity score (MDA-MB-468 [5]) | EC50, CellTiter-Glo (CAL-120 [6]) | drug sensitivity score (MDA-MB-231) | drug sensitivity score (CAL-148 [8]) | drug sensitivity score (CAL-51) | drug sensitivity score (CAL-120 [9]) | drug sensitivity score (Hs578T) | drug sensitivity score (HCC1599) | drug sensitivity score (HCC1937) | drug sensitivity score (HDQ-P1) | drug sensitivity score (HCC1143) | drug sensitivity score (MCF-10A) | drug sensitivity score (MDA-MB-453) | drug sensitivity score (BT-474) | drug sensitivity score (MDA-MB-436 [10]) | drug sensitivity score (MFM-223) | drug sensitivity score (BT-549 [11]) | drug sensitivity score (CAL-85-1 [12]) | drug sensitivity score (DU-4475) | drug sensitivity score (MDA-MB-468 [13]) | drug sensitivity score (SK-BR-3)
1 | Nc1nc(Cl)nc2c1ncn2[C@H]1C[C@H](O)[C@@H](CO)O1 [Cladribine] | > 1000 nM | 0 | 0 | 0 | 0 | 14.3 | 445 nM | 0 | 0 | 0 | 1.39 | 0 | 0 | 0 | 0 | 0 | 0 | 0 | 0 | 0 | 0 | 6.43 | 0 | 0 | 0.301 | 0
2 | Nc1ccn([C@@H]2O[C@H](CO)[C@@H](O)[C@@H]2O)c(=O)n1 [Cytarabine] | 618 nM | 7.92 | 0 | 0 | 0 | 0 | > 10000 nM | 0 | 11.3 | 13.4 | 0.601 | 2.8 | 0 | 0 | 1.06 | 3.36 | 0 | 0 | 0.361 | 10.5 | 0 | 7.56 | 0 | 3.25 | 4.8 | 12.2
3 | Cc1c2oc3c(C)ccc(C(=O)N[C@@H]4C(=O)N[C@H](C(C)C)C(=O)N5CCC[C@H]5C(=O)N(C)CC(=O)N(C)[C@@H](C(C)C)C(=O)O[C@@H]4C)c3nc-2c(C(=O)N[C@@H]2C(=O)N[C@H](C(C)C)C(=O)N3CCC[C@H]3C(=O)N(C)CC(=O)N(C)[C@@H](C(C)C)C(=O)O[C@@H]2C)c(N)c1=O [Dactinomycin] | 1.54 nM | 21.3 | 0 | 6.35 | 16.4 | 10.7 | 10.2 nM | 22.4 | 25.7 | 26.4 | 17.8 | 22.5 | 16.4 | 21.7 | 24.4 | 22.4 | 23.6 | 18.7 | 21 | 21 | 15 | 31.3 | 22.8 | 30.3 | 32.2 | 21.3
4 | N#CC[C@H](C1CCCC1)n1cc(-c2ncnc3[nH]ccc23)cn1 [Ruxolitinib] | > 10000 nM | 0 | 0 | 0 | 0 | 0 | 1670 nM | 0 | 0 | 0 | 1.35 | 0 | 0 | 0 | 0 | 0 | 0 | 0 | 0.693 | 0 | 1.49 | 0 | 0 | 0 | 0.173 | 0
5 | CO[C@H]1C[C@@H]2CC[C@@H](C)[C@@](O)(O2)C(=O)C(=O)N2CCCC[C@H]2C(=O)O[C@H]([C@H](C)C[C@@H]2CC[C@@H](OC(=O)C(C)(CO)CO)[C@H](OC)C2)CC(=O)[C@H](C)/C=C(\C)[C@@H](O)[C@@H](OC)C(=O)[C@H](C)C[C@H](C)/C=C/C=C/C=C/1C [Temsirolimus] | 0.15 nM | 0 | 0 | 0 | 0 | 0 | 1.08 nM | 0 | 8.93 | 11.3 | 7.34 | 10.1 | 0 | 6.15 | 4.08 | 8.92 | 0 | 9.78 | 2.49 | 3.51 | 7.59 | 12.7 | 9.28 | 5.2 | 14.7 | 11

Second part, led by results:

Row | EC50, CellTiter-Glo (MDA-MB-468 [7]) | Structure (SMILES) | drug sensitivity score (CAL-148 [1]) | drug sensitivity score (MDA-MB-436 [2]) | drug sensitivity score (BT-549 [3]) | drug sensitivity score (CAL-85-1 [4]) | drug sensitivity score (MDA-MB-468 [5]) | EC50, CellTiter-Glo (CAL-120 [6]) | drug sensitivity score (MDA-MB-231) | drug sensitivity score (CAL-148 [8]) | drug sensitivity score (CAL-51) | drug sensitivity score (CAL-120 [9]) | drug sensitivity score (Hs578T) | drug sensitivity score (HCC1599) | drug sensitivity score (HCC1937) | drug sensitivity score (HDQ-P1) | drug sensitivity score (HCC1143) | drug sensitivity score (MCF-10A) | drug sensitivity score (MDA-MB-453) | drug sensitivity score (BT-474) | drug sensitivity score (MDA-MB-436 [10]) | drug sensitivity score (MFM-223) | drug sensitivity score (BT-549 [11]) | drug sensitivity score (CAL-85-1 [12]) | drug sensitivity score (DU-4475) | drug sensitivity score (MDA-MB-468 [13]) | drug sensitivity score (SK-BR-3)
6 | 139 nM | COc1cccc2c1C(=O)c1c(O)c3c(c(O)c1C2=O)C[C@@](O)(C(=O)CO)C[C@@H]3O[C@H]1C[C@H](N)[C@H](O)[C@H](C)O1 [Doxorubicin] | 1.99 | 0 | 0 | 1.33 | 5.83 | 872 nM | 4.21 | 8.35 | 12.4 | 1.5 | 2.18 | 1.68 | 0 | 2.13 | 1.04 | 1.13 | 2.56 | 7.08 | 4.44 | 0 | 8.09 | 2.97 | 8.65 | 9.32 | 6.19
7 | 4990 nM | COc1cccc2cc(-c3nc([C@H]4CC[C@H](C(=O)O)CC4)n4ncnc(N)c34)[nH]c12 [OSI-027] | 0 | 0 | 0 | 0.0118 | 0 | 3850 nM | 3.06 | 2.6 | 4.69 | 5.45 | 2.44 | 0 | 3.56 | 7.43 | 2.97 | 4.28 | 8 | 4.09 | 4.39 | 6.51 | 6.24 | 5.52 | 2.39 | 4.37 | 13.4
8 | 532 nM | C=CCNC1=C2C[C@@H](C)C[C@H](OC)[C@H](O)[C@@H](C)/C=C(\C)[C@H](OC(N)=O)[C@@H](OC)/C=C\C=C(/C)C(=O)NC(=CC1=O)C2=O [Tanespimycin] | 15.9 | 0 | 0 | 7.62 | 0 | 269 nM | 14.5 | 16.3 | 20.7 | 10.5 | 15.6 | 8.46 | 16.5 | 19 | 18 | 21.6 | 23.7 | 14.5 | 18.2 | 16.8 | 18.5 | 13.3 | 20.2 | 11.3 | 18.3
9 | 2.95 nM | CC[C@]1(O)C[C@@H]2CN(CCc3c([nH]c4ccccc34)[C@@](C(=O)OC)(c3cc4c(cc3OC)N(C)[C@H]3[C@@](O)(C(=O)OC)[C@H](OC(C)=O)[C@]5(CC)C=CCN6CC[C@]43[C@@H]65)C2)C1 [Vinblastine] | 0 | 0 | 10.2 | 6.07 | 12.8 | 2.04 nM | 16.2 | 13 | 18.4 | 14.2 | 20.3 | 17.2 | 9.45 | 7.5 | 15.8 | 10.9 | 13.1 | 14.3 | 22.8 | 13 | 21.3 | 20.7 | 8.05 | 21.1 | 27.5
